Assay results as given in US10314883B2, “Compositions and methods for regulating blood pressure” (University of Virginia Patent Foundation, priority 2015, dated 2019).

How the values were obtained:
[1] = tested on: thoracodorsal arteries (TDA); assay: Pressure myography: agonist-induced constriction of pressurized TDAs from C57Bl/6 mice with pannexin inhibitors or Panx1 mimetic peptides; type: cell-based, mouse; conditions: for effect on phenylephrine-induced constriction of pressurized TDAs: TAT-linked peptides
Experimental: The contractile responses of pressurized thoracodorsal arteries (TDA) were measured as previously described. Briefly, TDA were isolated and placed in cold Krebs-HEPES until cannulation in a pressure arteriograph (Danish MyoTechnology). After a 30 minute equilibration period, cumulative concentrations of contractile agonists were applied to the TDA pressurized at 80 mmHg, and the vessel was visualized with an Olympus IX-71 microscope attached to a Hamamatsu EM-CCD camera coupled to Slidebook imaging software. […] Lastly, maximal diameter was measured at the end of each experiment in calcium-free Krebs-HEPES supplemented with EGTA (1 mmol/L) and sodium nitroprusside (10 μmol/L). In cases where the vessels were not constricting to the contractile agonist, their viability was assessed by applying 40 mM KCl and only TDA reaching 30% of the maximal diameter were considered for analysis. The contractile responses, as well as the basal tone, are expressed as a percentage of the maximal diameter.
Using pressure arteriography on TDA dissected from C57Bl/6 mice (as described; and aortic ring contraction, as described), we measured the effect of pannexin inhibitors, probenecid and 10Panx1, on the contractile response upon stimulation with different vasoconstrictors: phenylephrine (FIG. 1A), noradrenaline (also called norepinephrine) (FIG. 1B), serotonin (also known as 5-HT) (FIG. 1C) and endothelin-1 (FIG. 1D). […] In contrast, ^10Panx1 and probenecid had no effect on contraction of TDA measured in response to cumulative concentrations of serotonin or endothelin-1 (FIGS. 1C-D; Table 1).
To determine the region of Panx1 necessary for channel activation in response to α1AR stimulation, we produced short peptides derived from the intracellular regions of the Panx1 channel. We generated two peptides mimicking unique mouse Panx1 (mPanx1) sequences in the first intracellular loop (IL1 and IL2) and two peptides mimicking unique mPanx1 sequences in the C-terminal region, one in second intracellular loop (CT1) and one in the C-terminal tail (CT2) (FIG. 4A scissors indicate caspase 3 cleavage site; Table 3). All peptides also contained a TAT sequence to facilitate entry into cells and we verified the intracellular localization of each peptide by immunofluorescence detection of the TAT sequence in TDAs pre-incubated with each peptide (FIG. 7A). We tested the effect of each peptide on phenylephrine-induced contractile responses in pressurized TDAs from C57Bl/6 mice (FIGS. 4B-E). […] Note that these differences in effects of phenylephrine were similar in magnitude to those observed in arteries from SMC-specific Panx1-knockout mice and littermate controls (FIG. 2C, Table 2).

Panx1 = target: T1, Panx1 (Mus musculus, UniProt Q9JIP4); assay: ATP release from HEK293 cells cotransfected with mPanx1 and α1DAR; type: cell-based; conditions: peptide 3 μmol/L, phenylephrine 100 μmol/L
T1 construct: we progressively substituted amino acids in this region of full-length Panx1 with alanine residues; HA; expressed in transfected cells; host or cells: HEK293T cells, transient co-transfection with alpha1DAR plasmid (Origene, NM_013460, C-terminal Myc-DDK)
T1 sequence (Q9JIP4 whole entry): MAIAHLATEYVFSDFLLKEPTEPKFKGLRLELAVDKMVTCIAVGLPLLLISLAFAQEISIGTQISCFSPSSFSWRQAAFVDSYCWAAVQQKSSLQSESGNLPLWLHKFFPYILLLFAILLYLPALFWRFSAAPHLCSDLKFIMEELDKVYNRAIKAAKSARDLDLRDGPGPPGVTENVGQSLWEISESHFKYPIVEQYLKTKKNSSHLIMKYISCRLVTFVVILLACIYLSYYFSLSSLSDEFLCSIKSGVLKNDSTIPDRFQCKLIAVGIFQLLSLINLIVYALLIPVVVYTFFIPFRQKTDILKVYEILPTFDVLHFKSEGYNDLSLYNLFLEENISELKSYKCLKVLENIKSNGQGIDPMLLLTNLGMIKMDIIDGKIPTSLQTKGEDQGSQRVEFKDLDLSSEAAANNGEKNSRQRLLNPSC
Experimental: Human Embryonic Kidney (HEK) 293T cells were cultured as previously described, and were used until passage 20. For ATP measurements, 50,000 cells/well were seeded in 24 well plates pre-coated with 0.01% poly-L-lysine, and transfected using Lipofectamine 2000 (Invitrogen) according to the manufacturer protocol. Briefly, 0.4 μg of α1DAR and 0.4 μg of Panx1^WT, Panx1^KYP>AAA, Panx1^IVEQ>AAA or Panx1^YLK>AAA plasmids were added to each well along with 2 μl of Lipofectamine 2000. For electrophysiology measurements, 4 μg of α1DAR plasmid, 2 μg of Panx1^WT, Panx1^KYP>AAA, Panx1^IVEQ>AAA or Panx1^YLK>AAA plasmids, and 0.5 μg of GFP plasmid were mixed with 10 μl Lipofectamine 2000 and added to a well of 6-well plate seeded with ˜70% confluent HEK cells. Cells were split the next morning and plated onto a glass coverslip for recording. […]
The ectonucleotidase inhibitor ARL67156 (300 μmol/L) was applied to each well. […] The ATP concentration was measured by adding 50 μL of luciferin:luciferase reagent (ATP bioluminescence assay kit HSII; Roche), which was injected into each well and the luminescence was immediately recorded. Data are expressed as a percent increase in ATP concentration compared to unstimulated condition. […] Data were analyzed using a Kruskall Wallis test (non-parametric one-way ANOVA) followed by Dunn's post-hoc test.

[2] = in presence of the named peptide

Substance | effect on noradrenaline-induced constriction ([1]; C57Bl/6 TDAs) | effect on phenylephrine-induced constriction of pressurized TDAs ([1]; C57Bl/6 TDAs) | EMAX of endothelin-1 for TDA constriction [1, 2] | EMAX of noradrenaline for TDA constriction [1, 2] | EMAX of phenylephrine for TDA constriction [1, 2] | EMAX of serotonin for TDA constriction [1, 2] | effect on phenylephrine-induced ATP release (Panx1)
KYPIVEQYLKYGRKKQRRR [IL2] | inhibited | significantly decreased | 41.9 ± 3.73 percentage of maximal diameter | 53.4 ± 7.00 percentage of maximal diameter | 68.6 ± 5.11 percentage of maximal diameter | 36.7 ± 3.52 percentage of maximal diameter | significantly decreased
scrambled intracellular loop 2 IYLYVEQKPY (SEQ ID NO: 7) linked with a TAT sequence [Scrambled IL2] |  | no significant effect |  |  | 47.5 ± 2.17 percentage of maximal diameter |  | no effect
